Measured values taken from US20070286822A1, “Compounds for the Treatment of Periodontal Disease” (ANACOR PHARMACEUTICALS INC., priority 2006, published 2007).

| melting point [°C] | Compound |
| --- | --- |
| 90 to 99 | Fc1ccc2c(c1)COB2c1ccccc1 [9b, 1,3-Dihydro-5-fluoro-1-phenyl-2,1-benzoxaborole] |
| 53 to 55 | Fc1ccc(B2OCc3ccccc32)cc1 [9e, 1,3-Dihydro-1-(4-fluorophenyl)-2,1-benzoxaborole] |
| 112 to 114 | Fc1ccc2c(c1)COB2c1cccc(Cl)c1 [9f, 1-(3-Chlorophenyl)-1,3-dihydro-5-fluoro-2,1-benzoxaborole] |
| 80 to 82 | Fc1cccc(B2OCc3cc(F)ccc32)c1 [9g, 1,3-Dihydro-5-fluoro-1-(3-fluorophenyl)-2,1-benzoxaborole] |
| 75 to 77 | Fc1ccc(B2OCc3cc(F)ccc32)cc1 [9h, 1,3-Dihydro-5-fluoro-1-(4-fluorophenyl)-2,1-benzoxaborole] |
| 48 to 49 | Cc1cccc(B2OCc3cc(F)ccc32)c1 [9i, 1,3-Dihydro-5-fluoro-1-(3-methylphenyl)-2,1-benzoxaborole] |
| 48 to 49 | Cc1ccc(B2OCc3cc(F)ccc32)cc1 [9j, 1,3-Dihydro-5-fluoro-1-(4-methylphenyl)-2,1-benzoxaborole] |
| 57 to 59 | C(=Cc1ccccc1)B1OCc2ccccc21 [10a, 1,3-Dihydro-1-styryl-2,1-benzoxaborole] |
| 84 to 86 | Fc1ccc2c(c1)COB2C=Cc1ccccc1 [10b, 1,3-Dihydro-5-fluoro-1-styryl-2,1-benzoxaborole] |
| 102 to 104 | COc1ccc2c(c1)COB2O [C7, 5-methoxybenzo[c][1,2]oxaborol-1(3H)-ol] |
| 124 to 128 | Cc1ccc2c(c1)COB2O [C8, 5-methylbenzo[c][1,2]oxaborol-1(3H)-ol] |
| 139 to 143 | OB1OCc2ccc3ccccc3c21 [C11, naphtho[1,2-c][1,2]oxaborol-1(3H)-ol] |
| 110 to 117.5 | OB1OCc2ccc(F)cc21 [C13, 6-fluorobenzo[c][1,2]oxaborol-1(3H)-ol] |
| 146 to 149 | N#Cc1cccc(Oc2ccc3c(c2)B(O)OC3)c1 [C19, 3-(1-hydroxy-1,3-dihydrobenzo[c][1,2]oxaborol-6-yloxy)benzonitrile] |
| 119 to 130 | OB1OCc2ccc(Oc3ccc(Cl)cc3)cc21 [C20, 6-(4-chlorophenoxy)benzo[c][1,2]oxaborol-1(3H)-ol] |
| 95 to 99 | OB1OCc2ccc(Oc3ccccc3)cc21 [C21, 6-phenoxybenzo[c][1,2]oxaborol-1(3H)-ol] |
| 97 to 101 | OB1OCc2ccc(Oc3ccc(OC(F)(F)F)cc3)cc21 [C29, 6-(4-(trifluoromethoxy)phenoxy)benzo[c][1,2]oxaborol-1(3H)-ol] |
| 85 to 95 | CN(c1ccc2c(c1)COB2O)S(=O)(=O)c1ccccc1 [C30, N-(1-hydroxy-1,3-dihydrobenzo[c][1,2]oxaborol-5-yl)-N-methylbenzenesulfonamide] |
| 126 to 129 | COc1ccc(Oc2ccc3c(c2)B(O)OC3)cc1 [C31, 6-(4-methoxyphenoxy)benzo[c][1,2]oxaborol-1(3H)-ol] |
| 95 to 100 | COc1ccc(Sc2ccc3c(c2)B(O)OC3)cc1 [C32, 6-(4-methoxyphenylthio)benzo[c][1,2]oxaborol-1(3H)-ol] |
| 180 to 192 | COc1ccc(S(=O)(=O)c2ccc3c(c2)B(O)OC3)cc1 [C33, 6-(4-methoxyphenylsulfonyl)benzo[c][1,2]oxaborol-1(3H)-ol] |

| melting point [°C] | Compound |
| --- | --- |
| 134 to 137 | CCOC(=O)COc1ccc2c(c1)COB2O [C41, Ethyl 2-(1-hydroxy-1,3-dihydrobenzo[c][1,2]oxaborol-5-yloxy)acetate] |
| 163 to 166 | O=C(O)COc1ccc2c(c1)COB2O [C42, 2-(1-hydroxy-1,3-dihydrobenzo[c][1,2]oxaborol-5-yloxy)acetic acid] |
| 99 to 104 | OB1OCc2ccc(Sc3cccs3)cc21 [C43, 6-(thiophen-2-ylthio)benzo[c][1,2]oxaborol-1(3H)-ol] |
| 135 to 138 | OB1OCc2ccc(Sc3ccc(F)cc3)cc21 [C44, 6-(4-fluorophenylthio)benzo[c][1,2]oxaborol-1(3H)-ol] |
| 96 to 98 | CCCCC(=O)c1cccc(COc2ccc3c(c2)COB3O)c1 [C45, 1-(3-((1-hydroxy-1,3-dihydrobenzo[c][1,2]oxaborol-5-yloxy)methyl)phenyl)pentan-1-one] |
| 158 to 163 | O=C(COc1ccc2c(c1)COB2O)N1CCCCC1 [C46, 2-(1-hydroxy-1,3-dihydrobenzo[c][1,2]oxaborol-5-yloxy)-1-(pieridin-1-yl)ethanone] |
| 190 to 195 | O=C(COc1ccc2c(c1)COB2O)N1CCN(c2ncccn2)CC1 [C47, 2-(1-hydroxy-1,3-dihydrobenzo[c][1,2]oxaborol-5-yloxy)-1-(4-(pyrimidin-2-yl)piperazin-1-yl)ethanone] |
| 135 to 138 | OB1OCc2ccc(N3CCN(c4ccccn4)CC3)cc21 [C48, 6-(4-(pyridin-2-yl)piperazin-1-yl)benzo[c][1,2]oxaborol-1(3H)-ol] |
| 120 to 123 | CN(C)c1ccc2c(c1)B(O)OC2 [C51, 6-(dimethylamino)benzo[c][1,2]oxaborol-1(3H)-ol] |
| 186 to 193 | O=C(Nc1ccc2c(c1)B(O)OC2)c1ccccc1 [C52, N-(1-hydroxy-1,3-dihydrobenzo[c][1,2]oxaborol-6-yl)benzamide] |
| 159 to 161 | OB1OCc2ccc(N3CCN(c4ccccc4)CC3)cc21 [C53, 6-(4-phenylpiperazin-1-yl)benzo[c][1,2]oxaborol-1(3H)-ol] |
| 135 to 140 | OB1OCc2ccc(-n3ccc4ccccc43)cc21 [C55, 6-(1H-indol-1-yl)benzo[c][1,2]oxaborol-1(3H)-ol] |
| 128 to 132 | OB1OCc2ccc(N3CCOCC3)cc21 [C56, 6-morpholinobenzo[c][1,2]oxaborol-1(3H)-ol] |
| 162 to 167 | O=[N+]([O-])c1cc2c(cc1F)COB2O [C58, 5-fluoro-6-nitrobenzo[c][1,2]oxaborol-1(3H)-ol] |
| > 257 | OCc1cc2c(cc1Br)COB2O [C59] |
| > 250 | OB1OCc2cc3c(cc21)COB3O [C60, 3,7-dihydro-1,5-dihydroxy-1H,3H-Benzo[1,2-c:4,5-c′]bis[1,2]oxaborole] |
| 175 to 184 | O=S(=O)(Nc1ccc2c(c1)B(O)OC2)c1ccccc1 [C62, N-(1-hydroxy-1,3-dihydrobenzo[c][1,2]oxaborol-6-yl)benzenesulfonamide] |
| 176 to 185 | CC(=O)Nc1ccc2c(c1)B(O)OC2 [C63, N-(1-hydroxy-1,3-dihydrobenzo[c][1,2]oxaborol-6-yl)acetamide] |
| 241 to 250 | OCc1cccc2c1B(O)OC2 [C64, 7-(hydroxymethyl)benzo[c][1,2]oxaborol-1(3H)-ol] |
| 107 to 111 | Cc1cccc2c1B(O)OC2 [C65, 7-methylbenzo[c][1,2]oxaborol-1(3H)-ol] |
| 159 to 163 | OB1OCc2ccc(-n3cc(Sc4ccccc4)c4ccccc43)cc21 [C66, 6-(3-(phenylthio)-1H-indol-1-yl)benzo[c][1,2]oxaborol-1(3H)-ol] |
